Earlier results on five compounds are cited in patent publication US20060246530A1, “Method and reagent for the specifically identifying and quantifying one or more proteins in a sample” (priority 2002, published 2006).

Each structure is given as a SMILES string.

For series [1] the following is noted: stability constant, Zn.
The conditions of series [2]: stability constant, Gd.
For series [3] the following is noted: selectivity factor.
The subject of series [4] is mice. The note with it: Intravenous LD50-rate in mice.
For series [5] the following is noted: stability constant, Cu.
For series [6] the following is noted: stability constant.

Turning to `O=C(O)CN1CCNCCN(CC(=O)O)CCN(CC(=O)O)CC1` [DO3A], the “Log KZnL” value in series [1] is 19.26. The “Log KGdL” value in series [2] is on record as 21.0. Moreover, in series [3], the “Log Ksel” value is 4.13. The LD50 in series [4] was 7 to 9 mmol/kg. The “Log KCuL” value in series [5] is on record as 22.87. The “Log KCal” value in series [6] is reported as 11.74.

Turning to `O=C(O)CN1CCN(CC(=O)O)CCN(CC(=O)O)CCN(CC(=O)O)CC1` [DOTA, 1,4,7,10-tetraazacyclododecane-1,4,7,10-tetraacetic acid], the “Log KZnL” value in series [1] is on record as 21.05. The “Log KGdL” value in series [2] is listed as 24.6. Besides, in series [3], the “Log Ksel” value is recorded as 8.3. Besides, the LD50 in series [4] is 11 mmol/kg. In addition, in series [5], the “Log KCuL” value is listed as 22.63. The “Log KCal” value in series [6] is recorded as 17.23.

Take `O=C(O)CN(CCN(CC(=O)O)CC(=O)O)CCN(CC(=O)O)CC(=O)O` [DTPA]: the “Log KZnL” value in series [1] is 18.29. In addition, in series [2], the “Log KGdL” value is given as 22.46. Also, the “Log Ksel” value in series [3] was 7.04. Besides, the LD50 in series [4] was 5.6 mmol/kg. Besides, in series [5], the “Log KCuL” value was 21.38. In addition, the “Log KCal” value in series [6] is given as 10.75.

Turning to `O=C(O)CN(CCN(CC(=O)O)CC(=O)O)CC(=O)O` [EDTA], in series [1], the “Log KZnL” value was 16.5. For the same compound, in series [2], the “Log KGdL” value is 17.7. Moreover, the “Log Ksel” value in series [3] is 4.23. Further, the “Log KCuL” value in series [5] is given as 18.78. In series [6], the “Log KCal” value is 10.61.

Take `CC(O)CN1CCN(CC(=O)O)CCN(CC(=O)O)CCN(CC(=O)O)CC1` (centres unmarked) [HP-DO3A]: in series [1], the “Log KZnL” value is on record as 19.37. Moreover, the “Log KGdL” value in series [2] was 23.8. For the same compound, the “Log Ksel” value in series [3] is 6.95. Also, the LD50 in series [4] was 12 mmol/kg. Besides, the “Log KCuL” value in series [5] is 22.84. Also, the “Log KCal” value in series [6] is on record as 14.83.

Broadly, the LD50 is the dose at which mortality reaches 50%.
